Laboratory results published in US12098139B2, “Chemokine receptor modulators and uses thereof” (RAPT Therapeutics, Inc., priority 2018, dated 2024).

The compounds below were run against T1, hCCR4 (Chem5-hCCR4 cells) (Homo sapiens, UniProt P51679) (assay: Calcium flux assay (CCL22-stimulated, FLIPR Calcium 6 dye)). Conditions: Table 3, CCL22 1.5 nM, read-out: Potency (IC50).
T1 sequence (P51679 1-360): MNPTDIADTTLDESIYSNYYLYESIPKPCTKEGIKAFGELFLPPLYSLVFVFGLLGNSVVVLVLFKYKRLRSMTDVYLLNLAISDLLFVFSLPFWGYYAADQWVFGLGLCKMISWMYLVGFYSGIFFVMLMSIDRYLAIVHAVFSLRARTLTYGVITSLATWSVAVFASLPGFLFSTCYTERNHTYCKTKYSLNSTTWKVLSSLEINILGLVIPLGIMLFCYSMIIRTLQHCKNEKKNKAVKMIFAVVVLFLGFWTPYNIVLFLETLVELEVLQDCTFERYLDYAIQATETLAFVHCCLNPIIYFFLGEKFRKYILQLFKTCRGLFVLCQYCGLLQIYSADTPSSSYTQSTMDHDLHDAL
Format: cell-based
Protocol: Calcium Flux Assay. Compounds were evaluated in a calcium flux assay substantially performed as follows. Chem5-hCCR4 cells (EMD Millipore, Hayward, CA; HTS009C) were cultured under standard conditions and frozen in aliquots of 10×10^6 cells/mL. The day prior to compound testing, a vial was rapidly thawed and pipetted into 20 mL media (DMEM+10% FBS+1% Pen-Strep+1% L-glutamine). Cells were harvested by centrifugation and re-suspended in fresh culture medium. 25 μL of cell suspension was seeded into 384-well plates (Corning, Tewksbury, MA; CellBind with black wall/clear bottom). The plates were centrifuged at 300 g for 10 seconds and incubated overnight at 37° C. and 5% CO2. The day of compound testing, media was removed from the plates and 25 μL serum free media was added to each well. Plates were returned to the incubator for 2 h. 25 μL assay buffer (Hank's balanced salt solution+20 mM HEPES pH 7.4) containing FLIPR Calcium 6 dye (Molecular Devices, Sunnyvale, CA; #R8191) and probenecid (2.5 mM) was added to each well and incubated at 37° C. and 5% CO2 for 2 h. Compounds in DMSO were added to the plates using an HP D300e digital dispenser, and all wells were normalized to contain 0.25 μL (0.5%) DMSO. Plates were incubated for 1 hour at 37° C. and 5% CO2. CCL22 (Peprotech; Rockyhill, NJ) was diluted in assay buffer containing 0.1% BSA to 7.5 nM (corresponding to 5×EC80 of 1.5 nM).
Assay plates and working solution of CCL22 were transferred to the FlexStation plate reader (Molecular Devices) at 37° C. for 5 min of equilibration. Fluorescence recordings at 485 excitation/525 emission were performed at 2.5 second intervals. At t=16 seconds, 12.5 μL of CCL22 solution was added to each well and reads continued for 30 seconds at 2.5 second intervals. The minimum fluorescence (Fmin) was calculated by averaging the reads prior to ligand addition and the change in fluorescence (ΔF) was calculated by subtracting the Fmin from the average of the reads following ligand addition. The response ΔF/Fmin was plotted as a function of the compound concentration and the IC50 values were determined by non-linear regression analysis using a 4-parameter fit in either PRISM software (GraphPad; La Jolla, CA) or Dotmatics Browser.

IC50 | Structure (SMILES)
< 100 nM | C[C@@H](Nc1nc(N2CC([C@H]3CCCN([C@H]4C[C@](C)(C(=O)O)C4)C3)C2)ncc1Cl)c1ccc(Cl)cc1Cl [Example 12, (1R,3r)-3-((R)-3-(1-(5-chloro-4-(((R)-1-(2,4-dichlorophenyl)ethyl)amino)pyrimidin-2-yl)azetidin-3-yl)piperidin-1-yl)-1-methylcyclobutane-1-carboxylic acid]
< 100 nM | C[C@@H](Nc1nc(N2CC([C@H]3CCCN([C@H]4C[C@](C)(C(=O)O)C4)C3)C2)nc2ccsc12)c1ccc(Cl)cc1Cl [Example 28, (1R,3r)-3-((R)-3-(1-(4-(((R)-1-(2,4-dichlorophenyl)ethyl)amino)thieno[3,2-d]pyrimidin-2-yl)azetidin-3-yl)piperidin-1-yl)-1-methylcyclobutane-1-carboxylic acid]
100 to 500 nM | C[C@@H](Nc1nc(N2CC([C@H]3CCCN(CCO)C3)C2)nc2c1CCC2)c1ccc(Cl)cc1Cl [Example 24, 2-((R)-3-(1-(4-(((R)-1-(2,4-dichlorophenyl)ethyl)amino)-6,7-dihydro-5H-cyclopenta[d]pyrimidin-2-yl)azetidin-3-yl)piperidin-1-yl)ethan-1-ol]
< 100 nM | Cc1cnc(N2CC([C@H]3CCCN(CC(C)(C)O)C3)C2)nc1N[C@H](C)c1ccc(Cl)cc1Cl [Example 19, 1-((R)-3-(1-(4-(((R)-1-(2,4-dichlorophenyl)ethyl)amino)-5-methylpyrimidin-2-yl)azetidin-3-yl)piperidin-1-yl)-2-methylpropan-2-ol]
< 100 nM | C[C@@H](Nc1nc(N2CC([C@H]3CCCN([C@H]4C[C@](C)(C(=O)O)C4)C3)C2)nc2c1CCC2)c1ccc(Cl)cc1Cl [Example 20, (1R,3r)-3-((R)-3-(1-(4-(((R)-1-(2,4-dichlorophenyl)ethyl)amino)-6,7-dihydro-5H-cyclopenta[d]pyrimidin-2-yl)azetidin-3-yl)piperidin-1-yl)-1-methylcyclobutane-1-carboxylic acid]
100 to 500 nM | CC[C@]1(C(=O)O)C[C@H](N2CCC[C@H](C3CN(c4ncc(Cl)c(N[C@H](C)c5ccc(Cl)cc5Cl)n4)C3)C2)C1 [Example 23, (1R,3s)-3-((R)-3-(1-(5-chloro-4-(((R)-1-(2,4-dichlorophenyl)ethyl)amino)pyrimidin-2-yl)azetidin-3-yl)piperidin-1-yl)-1-ethylcyclobutane-1-carboxylic acid]

Same assay, conditions: Table 4, CCL22 1.5 nM, read-out: Potency (IC50)

IC50 | Structure (SMILES)
> 500 nM | C[C@@H](Nc1nc(N2CC([C@H]3CCCN(CCO)C3)C2)cnc1C#N)c1ccc(Cl)cc1S(C)(=O)=O [Example 49, 3-[[(1R)-1-(4-chloro-2-methylsulfonyl-phenyl)ethyl]amino]-5-[3-[(3R)-1-(2-hydroxyethyl)-3-piperidyl]azetidin-1-yl]pyrazine-2-carbonitrile; 2,2,2-trifluoroacetic acid]

Same assay, conditions: Table 5, CCL22 1.5 nM, read-out: Potency (IC50)

IC50 | Structure (SMILES)
< 100 nM | C[C@@H](Nc1nc(N2CC([C@H]3CCCN([C@H]4C[C@](C)(C(=O)O)C4)C3)C2)nc2ccccc12)c1ccc(Cl)cc1Cl [Example 94, 3-[(1R,3R)-3-[1-[4-[[(1R)-1-(2,4-dichlorophenyl)ethyl]amino]quinazolin-2-yl]azetidin-3-yl]-1-piperidyl]-1-methyl-cyclobutanecarboxylic acid; 2,2,2-trifluoroacetic acid]
< 100 nM | C[C@@H](Nc1nc(N2CC([C@H]3CCCN(C4CC(C)(C(=O)O)C4)C3)C2)ncc1CO)c1ccc(Cl)cc1Cl (single isomer, unassigned) [Example 68]
< 100 nM | COC(C)c1cnc(N2CC([C@H]3CCCN([C@H]4C[C@](C)(C(=O)O)C4)C3)C2)nc1N[C@H](C)c1ccc(Cl)cc1Cl (stereo partly drawn) [Example 79, 3-[(3R)-3-[1-[4-[[(1R)-1-(2,4-dichlorophenyl)ethyl]amino]-5-(1-methoxyethyl)pyrimidin-2-yl]azetidin-3-yl]-1-piperidyl]-1-methyl-cyclobutanecarboxylic acid; 2,2,2-trifluoroacetic acid]
